Data reported in paper PMC8869358, “High-Throughput Chemical Screening and Structure-Based Models to Predict hERG Inhibition” (Biology, 2022).
Structures can show the parent of a compound that is named as a salt. Where two headings read alike, the source gives them in different places.

How the values were obtained:
hERG [1] = target: T1, hERG (Homo sapiens, UniProt Q12809); test: Tox21 qHTS FluxOR thallium flux assay in hERG-U2OS cells
Experimental: The hERG-U2OS cell line was purchased from Codex BioSolution, Inc. (Gaithersburg, MD, USA). All the cell culture reagents were obtained from Invitrogen (Life Technologies, Madison, WI, USA). The hERG-U2OS cells were cultured in DMEM with Glutamax containing 10% fetal bovine serum (FBS), 1% of Non-Essential AA (NEAA), 50 U/mL penicillin, 50 μg/mL streptomycin, and 1 µg/mL puromycin. The cells were maintained at 37 °C under a humidified atmosphere and 5% CO2.
A FluxORTM thallium flux assay was performed in hERG-U2OS cells with stable hERG expression, as previously described. In this assay, thallium ions are used as surrogates for K^+ ions to monitor the activity of the hERG K^+ channel. […] The hERG-U2OS cells suspended in culture medium were dispensed at 1000 cells/well/3μL into 1536-well, black wall/clear-bottom plates using a Multidrop Combi dispenser (Thermo Fisher, Waltham, MA, USA). After the assay plates were incubated at 37 °C overnight, 3 μL of Loading Buffer provided from FluxOR II Potassium Ion Channel Assay Kit (Life Technologies, Carlsbad, CA, USA) was added to each assay well. The assay plates were then incubated at room temperature in the dark for 1 h, followed by the addition of 23 nL of compound, dissolved in DMSO, DMSO only, or positive control, to the assay plate. Each compound was tested at 15 concentrations in three independent runs.
Multiple criteria were used to select each small molecule, including properties allowing for high-throughput screens (HTS) (molecular weight, volatility, solubility, logP), commercial availability, possible and definite environmental hazards, or exposure concerns, and cost. A diverse group of 88 compounds was selected to be used as an internal control and plated in duplicate on each library plate to perform reproducibility analysis as well as to determine positional plate effects. Each compound in the Tox21 10K compound library was subjected to analytical chemistry quality control (QC), which provides information on the purity and identity of each sample. […] The compounds were serially diluted in Dimethylsulfoxide (DMSO) to 15 concentrations in 1536-well plates, covering a concentration range of up to four orders of magnitude.
Many of these chemicals were sourced independently by NTP/EPA/NCATS from different vendors or the same vendor but different batches; these chemicals have been tested in replicates. Compound concentration-response data analysis was performed as previously described. […] The dataset was then corrected using the DMSO-only compound plates at the beginning and end of the compound plate stack by applying an in-house pattern correction algorithm. The half-maximum inhibition values (IC50) for each compound and maximum response (efficacy) values were obtained by fitting the concentration-response curves of each compound to a four-parameter Hill equation [24]. […] To identify chemicals with the potential to inhibit the hERG channel, we selected only antagonist chemicals with curve rank −5 to −9.

hERG [2] = target: T1, hERG; test: cell-based; details: (-LOG10(IC50), µM)
[3] = hERG-U2OS cells, thallium flux, qHTS, result in words

T1 sequence (Q12809 whole entry): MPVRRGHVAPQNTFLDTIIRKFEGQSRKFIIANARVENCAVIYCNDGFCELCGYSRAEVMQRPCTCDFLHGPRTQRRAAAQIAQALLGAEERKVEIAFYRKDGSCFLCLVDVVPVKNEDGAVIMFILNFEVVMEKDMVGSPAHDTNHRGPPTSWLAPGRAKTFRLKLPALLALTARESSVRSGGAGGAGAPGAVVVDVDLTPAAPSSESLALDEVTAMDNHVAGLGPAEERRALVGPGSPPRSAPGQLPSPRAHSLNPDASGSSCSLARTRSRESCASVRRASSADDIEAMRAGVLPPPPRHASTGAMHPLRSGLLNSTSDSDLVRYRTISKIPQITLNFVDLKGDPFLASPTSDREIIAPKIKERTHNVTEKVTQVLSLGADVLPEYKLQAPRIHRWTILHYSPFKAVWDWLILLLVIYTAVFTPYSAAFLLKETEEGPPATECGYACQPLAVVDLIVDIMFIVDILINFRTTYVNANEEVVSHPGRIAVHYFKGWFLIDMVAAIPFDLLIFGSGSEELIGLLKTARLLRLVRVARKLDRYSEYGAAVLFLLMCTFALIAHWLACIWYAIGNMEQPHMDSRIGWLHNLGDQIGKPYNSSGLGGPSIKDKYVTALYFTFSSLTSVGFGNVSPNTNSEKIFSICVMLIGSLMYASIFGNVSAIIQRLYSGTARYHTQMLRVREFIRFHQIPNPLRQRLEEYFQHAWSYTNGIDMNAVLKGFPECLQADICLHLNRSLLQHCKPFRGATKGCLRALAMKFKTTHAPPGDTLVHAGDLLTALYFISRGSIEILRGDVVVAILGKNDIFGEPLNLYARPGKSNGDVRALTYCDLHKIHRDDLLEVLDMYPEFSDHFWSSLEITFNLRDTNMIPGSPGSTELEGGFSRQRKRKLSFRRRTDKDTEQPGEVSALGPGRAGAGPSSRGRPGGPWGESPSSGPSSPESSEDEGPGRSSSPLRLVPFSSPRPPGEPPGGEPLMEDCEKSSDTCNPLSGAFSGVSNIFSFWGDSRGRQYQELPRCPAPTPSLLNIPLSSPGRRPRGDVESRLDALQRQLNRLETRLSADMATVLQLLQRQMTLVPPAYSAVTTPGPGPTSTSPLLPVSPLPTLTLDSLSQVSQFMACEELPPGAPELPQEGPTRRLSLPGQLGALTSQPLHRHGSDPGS

## O=C(CCCN1CCC(O)(c2cccc(C(F)(F)F)c2)CC1)c1ccc(F)cc1 [Trifluperidol]
hERG [1]; [3]
  activity outcome for hERG inhibition in the assay: most active

## O=c1[nH]c2ccccc2n1CCCN1CCC(n2c(=O)[nH]c3cc(Cl)ccc32)CC1 [Domperidone]
hERG [1]; [3]
  activity outcome for hERG inhibition in the assay: showing activity against hERG

## O=c1[nH]c2ccccc2n1C1CCN(CCCC(c2ccc(F)cc2)c2ccc(F)cc2)CC1 [Pimozide]
hERG [1]
  activity outcome for hERG inhibition in the assay: most active

## Clc1ccc(C(c2ccccc2Cl)C(Cl)(Cl)Cl)cc1 (stereo not shown) [o p’-DDT]
hERG [1]; [3]
  activity outcome for hERG inhibition in the assay: inhibitory activity

## O=c1[nH]cc(F)c(=O)[nH]1 [5-fluorouracil]
hERG [1]; [3]
  activity outcome for hERG inhibition in the assay: inactive

## CCCCCCCCCCn1cc[n+](CCCCCCCCCC)c1C.[Cl-] [3-Didecyl-2-methylimidazolium chloride]
hERG [1]; [3]
  activity outcome for hERG inhibition in the assay: most active

## CO.COc1cc(Nc2c(C#N)cnc3cc(OCCCN4CCN(C)CC4)c(OC)cc23)c(Cl)cc1Cl [Bosutinib methanoate]
hERG [1]; [3]
  activity outcome for hERG inhibition in the assay: showing activity against hERG

## Cc1nc2sccn2c(=O)c1CCN1CCC(=C(c2ccc(F)cc2)c2ccc(F)cc2)CC1 [Ritanserin]
hERG [1]; IC50, hERG-U2OS cells, thallium flux, qHTS, 15 concentrations, three runs
  IC50: 0.18 µM
hERG [1]; [3]
  activity outcome for hERG inhibition in the assay: most active

## CCNC(=O)N1CCN(CCCC(c2ccc(F)cc2)c2ccc(F)cc2)CC1 [Amperozide hydrochloride]
hERG [1]; (-LOG10(IC50), µM), Supplementary File S2, Tox21 chemical library
  IC50: 0.0916 µM

## O=C1NCN(c2ccccc2)C12CCN(CCCC(c1ccc(F)cc1)c1ccc(F)cc1)CC2 [Fluspirilene]
hERG [1]; [3]
  activity outcome for hERG inhibition in the assay: most active

## CS(=O)(=O)CCNCc1ccc(-c2ccc3ncnc(Nc4ccc(OCc5cccc(F)c5)c(Cl)c4)c3c2)o1 [Lapatinib]
hERG [1]; [3]
  activity outcome for hERG inhibition in the assay: showing activity against hERG

## O=C(CCCN1CCC(O)(c2ccc(Cl)cc2)CC1)c1ccc(F)cc1 [Haloperidol]
hERG [1]
  activity outcome for hERG inhibition in the assay: most active

## CC(C)NCC(O)c1ccc(NS(C)(=O)=O)cc1 (stereo not shown) [Sotalol]
hERG [1]; [3]
  activity outcome for hERG inhibition in the assay: active

## O=C1C2(Cl)C3(Cl)C4(Cl)C(Cl)(Cl)C5(Cl)C3(Cl)C1(Cl)C5(Cl)C24Cl (stereo not shown) [Kepone]
hERG [2]
  IC50: 12.7 µM

## Cc1cc2c3c(c1)C(c1ccccc1)=N[C@@H](NC(=O)c1ccncc1)C(=O)N3CC2 [CI-1018]
hERG [2]
  IC50: 25.5 µM

## CC(C)=CCCC(C)=CCCC(C)=CCO [Farnesol]
hERG [2]
  IC50: 47.1 µM

## CCCOC(C(=O)OC1CCN(C)CC1)(c1ccccc1)c1ccccc1 [Propiverine hydrochloride]
hERG [2]
  IC50: 14.2 µM

## Cc1ccc(Cl)c(OCC(O)CNC(C)(C)C)c1 (stereo not shown) [Bupranolol]
hERG [2]
  IC50: 20.1 µM

## CCn1nc(Cc2ccccc2)cc1C1CCN(C[C@H]2C[C@H](N(C)[C@@H](C(=O)O)C(C)C)C[C@@H]2c2cccc(F)c2)CC1 [MK-578]
hERG [2]
  IC50: 20.3 µM

## CN(C)CCOC(c1ccccc1)c1ccc(Br)cc1 (stereo not shown) [Bromodiphenhydramine]
hERG [2]
  IC50: 4.09 µM

## CN(C)CCN(Cc1ccccc1)c1ccccn1 [Tripelennamine citrate]
hERG [2]
  IC50: 12.7 µM

## CCOC(=O)C1=NN(c2ccc(Cl)cc2Cl)C(C)(C(=O)OCC)C1 (stereo not shown) [Mefenpyr-diethyl]
hERG [2]
  IC50: 46.2 µM

## NCc1cccc(C2CCN(C(=O)c3ccc(C#Cc4ccccc4F)o3)CC2)c1 [AVE5638]
hERG [2]
  IC50: 9.77 µM

## C=CCC1=C(C)[C@@H](OC(=O)[C@@H]2[C@@H](C=C(C)C)C2(C)C)CC1=O [S-Bioallethrin]
hERG [2]
  IC50: 23.6 µM

## Oc1cc(Cl)ccc1Oc1ccc(Cl)cc1Cl [Triclosan]
hERG [2]
  IC50: 45.2 µM

## CC(C)(C)c1cc([N+](=O)[O-])cc(C(C)(C)C)c1O [2,6-Di-tert-butyl-4-nitrophenol]
hERG [2]
  IC50: 38.9 µM

## ClC1=C(Cl)[C@]2(Cl)[C@H]3[C@H]([C@@H]4C=C[C@H]3C4)[C@@]1(Cl)C2(Cl)Cl [Aldrin]
hERG [2]
  IC50: 23.6 µM

## O=C1OC2(c3ccccc31)c1ccc(O)c(Br)c1Oc1c2ccc(O)c1Br [C.I. Solvent Red 72]
hERG [2]
  IC50: 34.7 µM

## CCOC(=O)c1nc(C(Cl)(Cl)Cl)n(-c2ccc(Cl)cc2Cl)n1 [Fenchlorazole-ethyl]
hERG [2]
  IC50: 49 µM

## C[C@@H]1CC[C@@]2(OC1)O[C@H]1[C@@H](O)[C@H]3[C@@H]4CC[C@H]5C[C@@H](O[C@@H]6O[C@H](CO)[C@H](O[C@@H]7O[C@H](CO)[C@@H](O)[C@H](O[C@@H]8OC[C@@H](O)[C@H](O)[C@H]8O)[C@H]7O[C@@H]7O[C@H](CO)[C@@H](O)[C@H](O[C@@H]8O[C@H](CO)[C@@H](O)[C@H](O)[C@H]8O)[C@H]7O)[C@H](O)[C@H]6O)[C@H](O)C[C@]5(C)[C@H]4CC[C@]3(C)[C@H]1[C@@H]2C [Digitonin]
hERG [2]
  IC50: 8.9 µM

## ClC1=C(Cl)[C@]2(Cl)[C@@H]3[C@@H](Cl)[C@H]4O[C@H]4[C@@H]3C1(Cl)C2(Cl)Cl [Heptachlor epoxide B]
hERG [2]
  IC50: 38.9 µM

## CC1(C)CCC(Cc2ccc(Cl)cc2)C1(O)Cn1cncn1 (stereo not shown) [Metconazole]
hERG [2]
  IC50: 50.9 µM

## CCN(CC)CCOC(=O)C(Cc1cccc2ccccc12)CC1CCCO1 (stereo not shown) [Nafronyl oxalate]
hERG [2]
  IC50: 8.99 µM

## c1cc(CN2CCCCC2)cc(OCCCNc2nc3ccccc3s2)c1 [Zolantidine dimaleate]
hERG [2]
  IC50: 9.16 µM

## Clc1cnc(Oc2ccc(Oc3ncc(Cl)cc3Cl)cc2)c(Cl)c1 [1,4-Bis[2-(3,5-dichloropyridyloxy)]benzene]
hERG [2]
  IC50: 17.4 µM

## c1ccc(C[P+](c2ccccc2)(c2ccccc2)c2ccccc2)cc1 [Benzyltriphenylphosphonium chloride]
hERG [2]
  IC50: 2.27 µM

## N#CSCSC#N [Methylene bis(thiocyanate)]
hERG [2]
  IC50: 50.1 µM

## CCOC(=O)c1cn2nc(OP(=S)(OCC)OCC)cc2nc1C [Pyrazophos]
hERG [2]
  IC50: 51.9 µM

## CC(COc1ccc(Oc2ccccc2)cc1)Oc1ccccn1 (stereo not shown) [Pyriproxyfen]
hERG [2]
  IC50: 21 µM

## CCCCCCCCCCCCCC[P+](CCCCCC)(CCCCCC)CCCCCC [Trihexyltetradecylphosphonium hexafluorophosphate]
hERG [2]
  IC50: 0.47 µM

## N#CC(CCc1ccc(Cl)cc1)(Cn1cncn1)c1ccccc1 (stereo not shown) [Fenbuconazole]
hERG [2]
  IC50: 18.1 µM

## C[C@H]1C[C@H]2[C@@H]3CCC4=CC(=O)C=C[C@]4(C)[C@@]3(Cl)[C@@H](O)C[C@]2(C)[C@@]1(O)C(=O)CO [Beclomethasone]
hERG [2]
  IC50: 23.9 µM

## [H]/N=C(\N/C(=N/[H])Nc1ccc(Cl)cc1)NC(C)C [Proguanil hydrochloride]
hERG [2]
  IC50: 20.1 µM

## O=C(c1ccccc1)C(Cl)Cl [2,2-Dichloro-1-phenylethanone]
hERG [2]
  IC50: 36 µM

## CC1=C(C(=O)OC(C)C)C(c2cccc([N+](=O)[O-])c2)C(C(=O)OC2CN(C(c3ccccc3)c3ccccc3)C2)=C(N)N1 (stereo not shown) [Azelnidipine]
hERG [2]
  IC50: 8.99 µM

## CCCCCCCCCC[N+](C)(CCCCCCCCCC)CCC[Si](OC)(OC)OC [Didecylmethyl(3-(trimethoxysilyl)propyl)ammonium chloride]
hERG [2]
  IC50: 2.65 µM

## CC(C)OC(=O)c1cc(C(=O)OC(C)C)cc([N+](=O)[O-])c1 [Nitrothal-isopropyl]
hERG [2]
  IC50: 40.6 µM

## CCCN1C[C@H](CSC)C[C@@H]2c3cccc4[nH]cc(c34)C[C@H]21 [Pergolide methanesulfonate]
hERG [2]
  IC50: 7.56 µM

## CCCCCCCCCCCC[N+](C)(C)C [Dodecyltrimethylammonium chloride]
hERG [2]
  IC50: 18 µM

## Cc1c([N+](=O)[O-])cc2c(c1[N+](=O)[O-])C(C)(C)CC2(C)C [1,1,3,3,5-Pentamethyl-4,6-dinitro-2,3-dihydro-1H-indene]
hERG [2]
  IC50: 16.7 µM

## CN1CCCN(C(c2ccccc2)c2ccc(Cl)cc2)CC1 (stereo not shown) [Homochlorcyclizine]
hERG [2]
  IC50: 1.83 µM

## OC1(c2ccc(Cl)c(C(F)(F)F)c2)CCN(CCCC(c2ccc(F)cc2)c2ccc(F)cc2)CC1 [Penfluridol]
hERG [2]
  IC50: 0.239 µM

## CCCCC(CC)CN1CN(CC(CC)CCCC)CC(C)(N)C1 (stereo not shown) [Hexetidine]
hERG [2]
  IC50: 3.01 µM

## Cc1c(OCC(F)(F)F)ccnc1C[S+]([O-])c1nc2ccccc2[nH]1 (stereo not shown) [Lansoprazole]
hERG [2]
  IC50: 43.6 µM

## CN1CCC(=C2c3ccccc3Sc3ccccc32)CC1 [Pimethixene maleate]
hERG [2]
  IC50: 9.89 µM

## COc1ccc(S(=O)(=O)N2C(=O)[C@@](c3ccccc3OC)(N3C[C@H](O)C[C@H]3C(=O)N(C)C)c3cc(Cl)ccc32)c(OC)c1 [Nelivaptan]
hERG [2]
  IC50: 54.9 µM

## CN(C)CCN(Cc1ccc(Cl)cc1)c1ccccn1 [Chloropyramine hydrochloride]
hERG [2]
  IC50: 2.39 µM
